In ChEMBL document CHEMBL3608294, “Epoxylathyrol Derivatives: Modulation of ABCB1-Mediated Multidrug Resistance in Human Colon Adenocarcinoma and Mouse T-Lymphoma Cells” (J Nat Prod, 2015):

Legend:
L5178Y [1] = experiment: Antiproliferative activity against human ABCB1 expressing mouse L5178Y cells incubated for 72 hrs by MTT assay; format: functional, cell-based
L5178Y [2] = experiment: Antiproliferative activity against chemosensitive wild type parental mouse L5178Y cells incubated for 72 hrs by MTT assay; format: functional, cell-based
[3] = molecular target: T1, ATP-dependent translocase ABCB1 (Homo sapiens, UniProt P08183); experiment: Inhibition of human ABCB1 expressed in mouse L5178Y cells assessed as potentiation of 2 mg/ml doxorubicin-induced cytotoxicty by measuring combination index at 5:1 compound to doxorubicin ratio incubated for 48 hrs by MTT assay; format: cell-based
T1 sequence (P08183 whole entry): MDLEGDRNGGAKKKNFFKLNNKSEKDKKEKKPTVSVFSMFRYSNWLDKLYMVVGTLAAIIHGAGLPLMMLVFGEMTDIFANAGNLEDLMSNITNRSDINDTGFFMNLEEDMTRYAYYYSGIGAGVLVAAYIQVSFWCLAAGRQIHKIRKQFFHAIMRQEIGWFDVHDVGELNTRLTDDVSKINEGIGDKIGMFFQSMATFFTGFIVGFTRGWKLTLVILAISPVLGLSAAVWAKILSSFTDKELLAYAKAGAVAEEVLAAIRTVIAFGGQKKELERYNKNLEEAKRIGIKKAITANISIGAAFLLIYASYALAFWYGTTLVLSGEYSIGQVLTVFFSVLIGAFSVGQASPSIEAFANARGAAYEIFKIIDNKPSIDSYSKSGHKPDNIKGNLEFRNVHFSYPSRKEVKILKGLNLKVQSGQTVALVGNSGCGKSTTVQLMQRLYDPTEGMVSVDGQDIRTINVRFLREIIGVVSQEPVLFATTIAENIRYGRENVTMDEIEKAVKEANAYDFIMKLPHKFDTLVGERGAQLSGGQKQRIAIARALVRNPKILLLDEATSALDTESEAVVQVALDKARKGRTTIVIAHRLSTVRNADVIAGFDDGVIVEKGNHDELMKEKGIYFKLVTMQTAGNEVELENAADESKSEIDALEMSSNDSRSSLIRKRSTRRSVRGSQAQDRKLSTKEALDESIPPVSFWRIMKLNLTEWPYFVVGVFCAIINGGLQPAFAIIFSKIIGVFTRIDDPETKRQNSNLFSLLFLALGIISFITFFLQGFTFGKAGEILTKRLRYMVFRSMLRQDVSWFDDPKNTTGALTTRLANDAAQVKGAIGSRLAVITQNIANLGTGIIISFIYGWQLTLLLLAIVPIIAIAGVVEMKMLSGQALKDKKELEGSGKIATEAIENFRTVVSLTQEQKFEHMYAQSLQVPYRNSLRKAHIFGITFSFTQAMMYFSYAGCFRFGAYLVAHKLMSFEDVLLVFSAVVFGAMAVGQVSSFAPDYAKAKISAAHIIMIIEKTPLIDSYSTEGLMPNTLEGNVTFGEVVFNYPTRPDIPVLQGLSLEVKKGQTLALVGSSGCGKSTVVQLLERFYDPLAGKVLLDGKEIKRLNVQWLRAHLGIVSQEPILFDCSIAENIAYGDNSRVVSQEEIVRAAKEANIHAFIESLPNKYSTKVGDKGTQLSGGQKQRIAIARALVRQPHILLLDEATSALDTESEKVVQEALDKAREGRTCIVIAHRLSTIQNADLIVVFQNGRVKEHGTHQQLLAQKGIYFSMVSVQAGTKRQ

[4] = molecular target: T1, ATP-dependent translocase ABCB1; experiment: Inhibition of ABCB1 in multidrug resistant human COLO320 cells assessed as fluorescence activity ratio at 0.2 uM incubated for 10 mins by flow cytometry based rhodamine-123 accumulation assay (reference value: 0.62)
[5] = Antiproliferative activity against multidrug resistant human COLO320 cells incubated for 72 hrs by MTT assay; format: functional; conditions: COLO 320, 72 h
L5178Y [6] = experiment: Selectivity index, ratio of antiproliferative IC50 for wild type parental mouse L5178Y cells to antiproliferative IC50 for human ABCB1 expressing mouse L5178Y cells; format: functional
L5178Y [7] = experiment: Selectivity index, ratio of cytotoxic IC50 for wild type parental mouse L5178Y cells to cytotoxic IC50 for human ABCB1 expressing mouse L5178Y cells; format: functional
[8] = molecular target: T1, ATP-dependent translocase ABCB1; experiment: Inhibition of ABCB1 in multidrug resistant human COLO320 cells assessed as fluorescence activity ratio at 2 uM incubated for 10 mins by flow cytometry based rhodamine-123 accumulation assay (reference value: 0.62)
[9] = Selectivity index, ratio of antiproliferative IC50 for chemosensitive human COLO205 cells to antiproliferative IC50 for multidrug resistant human COLO320 cells; format: functional, COLO 205
[10] = Antiproliferative activity against chemosensitive human COLO205 cells incubated for 72 hrs by MTT assay; format: functional, cell-based; conditions: COLO 205, 72 h
[11] = molecular target: T1, ATP-dependent translocase ABCB1; experiment: Inhibition of human ABCB1 expressed in mouse L5178Y cells assessed as fluorescence activity ratio at 2 uM incubated for 10 mins by flow cytometry based rhodamine-123 accumulation assay (reference value: 0.78); format: cell-based
[12] = molecular target: T1, ATP-dependent translocase ABCB1; experiment: Inhibition of ABCB1 in multidrug resistant human COLO320 cells assessed as fluorescence activity ratio at 20 uM incubated for 10 mins by flow cytometry based rhodamine-123 accumulation assay (reference value: 0.62)
[13] = molecular target: T1, ATP-dependent translocase ABCB1; experiment: Inhibition of human ABCB1 expressed in mouse L5178Y cells assessed as fluorescence activity ratio at 0.2 uM incubated for 10 mins by flow cytometry based rhodamine-123 accumulation assay (reference value: 0.78); format: cell-based
[14] = molecular target: T1, ATP-dependent translocase ABCB1; experiment: Inhibition of human ABCB1 expressed in mouse L5178Y cells assessed as fluorescence activity ratio at 20 uM incubated for 10 mins by flow cytometry based rhodamine-123 accumulation assay (reference value: 0.78); format: cell-based
L5178Y [15] = experiment: Cytotoxicity against human ABCB1 expressing mouse L5178Y cells incubated for 24 hrs by MTT assay; format: functional, cell-based
L5178Y [16] = experiment: Cytotoxicity against chemosensitive wild type parental mouse L5178Y cells incubated for 24 hrs by MTT assay; format: functional, cell-based
[17] = molecular target: T1, ATP-dependent translocase ABCB1; experiment: Inhibition of human ABCB1 expressed in mouse L5178Y cells assessed as potentiation of 2 mg/ml doxorubicin-induced cytotoxicty at 9:1 compound to doxorubicin ratio incubated for 48 hrs by MTT assay; format: cell-based
[18] = Selectivity index, ratio of cytotoxic IC50 for chemosensitive human COLO205 cells to cytotoxic IC50 for multidrug resistant human COLO320 cells; format: functional, COLO 205
COLO 205 = experiment: Cytotoxicity against chemosensitive human COLO205 cells incubated for 24 hrs by MTT assay; format: functional, cell-based; conditions: COLO 205, 24 h
[19] = Cytotoxicity against multidrug resistant human COLO320 cells incubated for 24 hrs by MTT assay; format: functional, cell-based; conditions: COLO 320, 24 h
[20] = molecular target: T1, ATP-dependent translocase ABCB1; experiment: Inhibition of human ABCB1 expressed in mouse L5178Y cells assessed as potentiation of 2 mg/ml doxorubicin-induced cytotoxicty at 6:1 compound to doxorubicin ratio incubated for 48 hrs by MTT assay; format: cell-based
[21] = molecular target: T1, ATP-dependent translocase ABCB1; experiment: Inhibition of human ABCB1 expressed in mouse L5178Y cells assessed as potentiation of 2 mg/ml doxorubicin-induced cytotoxicty by measuring combination index at 4:1 compound to doxorubicin ratio incubated for 48 hrs by MTT assay; format: cell-based
[22] = molecular target: T1, ATP-dependent translocase ABCB1; experiment: Activation of human ABCB1 expressed in Sf9 cell membrane vesicles assessed as inorganic phosphate release at 0.8 uM to 100 uM using MgATP by colorimetric ATPase assay
[23] = molecular target: T1, ATP-dependent translocase ABCB1; experiment: Non-competitive inhibition of human ABCB1 expressed in Sf9 cell membrane vesicles assessed as reduction in verapamil transport at >25 uM using MgATP by colorimetric ATPase assay
[24] = molecular target: T1, ATP-dependent translocase ABCB1; experiment: Non-competitive inhibition of human ABCB1 expressed in Sf9 cell membrane vesicles assessed as reduction in vanadate-sensitive ATPase activity at >25 uM using MgATP by colorimetric ATPase assay
[25] = molecular target: T1, ATP-dependent translocase ABCB1; experiment: Inhibition of human ABCB1 expressed in mouse L5178Y cells assessed as potentiation of 2 mg/ml doxorubicin-induced cytotoxicty at 7:1 compound to doxorubicin ratio incubated for 48 hrs by MTT assay; format: cell-based

Row | SMILES | IC50 (L5178Y [1]) | IC50 (L5178Y [2]) | CI [3] | Ratio [4] | IC50 [5] | Ratio IC50 (L5178Y [6]) | Ratio IC50 (L5178Y [7]) | Ratio [8] | Ratio IC50 [9] | IC50 [10] | Ratio [11] | Ratio [12] | Ratio [13] | Ratio [14] | IC50 (L5178Y [15]) | IC50 (L5178Y [16]) | Ratio IC50 [18] | IC50 (COLO 205) | IC50 [19] | other results
1 | CO[C@H]1[C@@H]2[C@H](CC[C@]3(COC(=O)c4ccc(C(F)(F)F)cc4)O[C@@H]3[C@H]3[C@@H](OC(=O)c4ccc(C(F)(F)F)cc4)[C@@H](C)C[C@]3(O)C(=O)[C@@H]1C)C2(C)C | 37.6 µM | 33.3 µM | 0.054 | 2.83 | 9.3 µM | 0.78 | 0.94 | 8.25 | 0.88 | 8.2 µM | 39.3 | 11.56 | 9.87 | 41.81 | 50.9 µM | 48 µM | – | – | – | –
2 | COc1ccccc1C(=O)OC[C@]1(C)CC[C@H]2[C@@H](/C=C(\C)C(=O)[C@@]3(O)C[C@H](C)[C@H](OC(=O)c4ccccc4OC)[C@@H]3[C@H]1O)C2(C)C | 31.3 µM | 24.4 µM | – | 1.25 | 17.8 µM | 0.78 | 0.77 | 4.44 | 0.87 | 15.5 µM | 33.36 | 12.35 | 2.47 | 55.43 | 38.9 µM | 29.9 µM | 0.99 | 24.6 µM | 25.1 µM | CI [17]: 0.051
3 | CO[C@H]1[C@@H]2[C@H](CC[C@]3(COC(C)=O)O[C@@H]3[C@H]3[C@@H](OC(C)=O)[C@@H](C)C[C@]3(O)C(=O)[C@@H]1C)C2(C)C | > 100 µM | > 100 µM | – | – | 65.8 µM | – | – | 1.1 | >1.98 | > 100 µM | 1.16 | 2.25 | – | 2.07 | > 100 µM | > 100 µM | – | > 100 µM | > 100 µM | CI [20]: 0.214
4 | C/C1=C\[C@@H]2[C@H](CC[C@]3(CO3)[C@H](OC(=O)c3ccc4ccccc4c3)[C@H]3[C@@H](OC(=O)c4ccc5ccccc5c4)[C@@H](C)C[C@]3(O)C1=O)C2(C)C | > 100 µM | > 100 µM | – | 2.54 | > 100 µM | – | – | 5.83 | – | > 100 µM | 58.84 | 5.06 | 13.67 | 66.52 | > 100 µM | > 100 µM | – | > 100 µM | > 100 µM | CI [21]: 0.233
5 | C/C1=C\[C@@H]2[C@H](CC[C@@](C)(O)[C@H](O)[C@H]3[C@@H](OC(=O)c4ccccc4)[C@@H](C)C[C@]3(O)[C@H]1OC(=O)c1ccccc1)C2(C)C | > 100 µM | 38.5 µM | – | 1.48 | 30.5 µM | <0.39 | 1.03 | 2.94 | >3.28 | > 100 µM | 43.35 | 5.78 | 2.33 | 71.12 | 50.7 µM | 52.4 µM | 0.88 | 44.9 µM | 51.2 µM | –
6 | COc1cccc(C(=O)O[C@@H]2[C@@H]3[C@@H](OC(=O)c4cccc(OC)c4)[C@]4(CC[C@H]5[C@@H](/C=C(\C)C(=O)[C@@]3(O)C[C@@H]2C)C5(C)C)CO4)c1 | 52.8 µM | 24.5 µM | 0.097 | 3.13 | > 100 µM | 0.46 | <0.42 | 9.1 | – | > 100 µM | 60.62 | 15.4 | 10.45 | 63.13 | > 100 µM | 42.3 µM | – | > 100 µM | > 100 µM | Activity [22]: Active
7 | C/C1=C\[C@@H]2[C@H](CC[C@]3(CO3)[C@H](OC(=O)c3ccc(N(C)C)cc3)[C@H]3[C@@H](OC(=O)c4ccc(N(C)C)cc4)[C@@H](C)C[C@]3(O)C1=O)C2(C)C | 45.7 µM | 28.8 µM | 0.172 | 1.02 | 21.3 µM | 0.63 | 0.7 | 3.07 | 0.8 | 17.2 µM | 8.03 | 12.31 | 1.38 | 56.81 | 48.4 µM | 33.9 µM | 0.62 | 22.5 µM | 36.2 µM | –
8 | C/C1=C\[C@@H]2[C@H](CC[C@@](C)(O)[C@H](O)[C@H]3[C@@H](OC(=O)c4ccccc4)[C@@H](C)C[C@]3(O)[C@H]1O)C2(C)C | > 100 µM | > 100 µM | – | – | 37.1 µM | – | – | 1.37 | 0.84 | 30.4 µM | 1.45 | 4.29 | – | 33.19 | > 100 µM | > 100 µM | >1.9 | > 100 µM | 52.7 µM | CI [20]: 0.23
9 | C/C1=C\[C@@H]2[C@H](CC[C@]3(CO3)[C@H](OC(=O)c3cccs3)[C@H]3[C@@H](OC(=O)c4cccs4)[C@@H](C)C[C@]3(O)C1=O)C2(C)C | 32.4 µM | 26.2 µM | 0.196 | – | > 100 µM | 0.81 | 1.16 | 8.44 | <0.19 | 18.8 µM | 31.06 | 12.16 | – | 68.74 | 28.3 µM | 32.8 µM | >3.99 | > 100 µM | 25.1 µM | inhibition (INH) [23]: Active; inhibition (INH) [24]: Active; Activity [22]: Active
10 | C/C1=C\[C@@H]2[C@H](CC[C@]3(CO3)[C@H](OC(=O)c3cccc(C)c3)[C@H]3[C@@H](OC(=O)c4cccc(C)c4)[C@@H](C)C[C@]3(O)C1=O)C2(C)C | 29 µM | 41.8 µM | 0.066 | 3 | 15.7 µM | 1.44 | <0.53 | 5.59 | 0.98 | 15.4 µM | 86.39 | 6.86 | 3.55 | 83.29 | > 50 µM | 26.4 µM | >2.09 | > 50 µM | 23.9 µM | –
11 | C/C1=C\[C@@H]2[C@H](CC[C@]3(CO3)[C@H](OC(=O)N(C)C)[C@H]3[C@@H](O)[C@@H](C)C[C@]3(O)C1=O)C2(C)C | > 100 µM | > 100 µM | – | – | 69 µM | – | >100 | 1.03 | 1 | 69 µM | 0.67 | 1.55 | – | 1.61 | > 100 µM | > 100 µM | <0.41 | 41 µM | > 100 µM | CI [25]: 0.861
